Source: ChEMBL document CHEMBL1201862, “PubChem BioAssay data set” (2004)
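Interpolation was linear, between the two tested concentrations surrounding the appropriate level; five concentrations were tested over 48 hours in 96-well plates. The concentration for 50% growth inhibition is given as GI50.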 Active and inactive are the calls of the source. No stated cut-off is given here; in the data, active = GI50 up to about 1.1 µM and inactive = higher.

Columns and labels:
Assay in all cases: growth of human tumour cells (NCI), 48 h
SNB-75 = system: SNB-75
786-0 = system: 786-0
OVCAR-3 = system: OVCAR-3
Malme-3M = system: Malme-3M
KM12 = system: KM12
SW-620 = system: SW-620
ACHN = system: ACHN
UACC-62 = system: UACC-62
COLO 205 = system: COLO 205
DMS-114 = system: DMS-114
NCI-H522 = system: NCI-H522
U-251 = system: U-251
MOLT-4 = system: MOLT-4
CCRF-CEM = system: CCRF-CEM
HL-60 = system: HL-60
RPMI-8226 = system: RPMI-8226
SF-268 = system: SF-268
RXF 393 = system: RXF 393
HOP-92 = system: HOP-92

Measured: GI50

C1=CC=C2NCCOCC/N=C3/C=CC=CC=C3NCCOCC/N=C\2C=C1
inactive: SNB-75 > 100 µM | 786-0 > 100 µM | OVCAR-3 > 100 µM | Malme-3M 21.5 µM | KM12 66.2 µM | SW-620 32.4 µM | ACHN > 100 µM | UACC-62 47.9 µM | COLO 205 45 µM | DMS-114 46.6 µM | NCI-H522 > 100 µM | U-251 > 100 µM | MOLT-4 44.9 µM | CCRF-CEM 40 µM | HL-60 22.4 µM | RPMI-8226 45.7 µM | SF-268 > 100 µM

CCOC(=O)C1=C(C)N(NC(=O)c2ccccc2)C2(O)CCCC12C(=O)OCC (stereo not given)
inactive: SNB-75 40.1 µM | 786-0 > 100 µM | RXF 393 > 100 µM | OVCAR-3 > 100 µM | Malme-3M > 100 µM | KM12 > 100 µM | SW-620 > 100 µM | ACHN > 100 µM | UACC-62 > 100 µM | DMS-114 > 100 µM | NCI-H522 > 100 µM | U-251 > 100 µM | MOLT-4 > 100 µM | HL-60 > 100 µM | RPMI-8226 > 100 µM | SF-268 > 100 µM

CON1C(=O)C2(CCCCC2)C(=O)C12C=CC(C)CC2 (stereo not given)
inactive: SNB-75 > 100 µM | 786-0 > 100 µM | RXF 393 30.7 µM | OVCAR-3 > 100 µM | Malme-3M > 100 µM | KM12 > 100 µM | SW-620 > 100 µM | UACC-62 > 100 µM | COLO 205 > 100 µM | DMS-114 46.7 µM | NCI-H522 95.1 µM | U-251 > 100 µM | MOLT-4 78.9 µM | CCRF-CEM > 100 µM | HL-60 49.5 µM | RPMI-8226 72.3 µM | SF-268 > 100 µM

C/C(=N\N(C)C)C(CN1CCCCC1)C(c1ccccc1)c1c(O)c2ccccc2oc1=O (stereo not given)
inactive: SNB-75 28.3 µM | 786-0 > 100 µM | RXF 393 > 100 µM | OVCAR-3 > 100 µM | Malme-3M > 100 µM | KM12 > 100 µM | SW-620 > 100 µM | ACHN > 100 µM | UACC-62 80.4 µM | COLO 205 > 100 µM | DMS-114 > 100 µM | NCI-H522 > 100 µM | U-251 > 100 µM | MOLT-4 > 100 µM | CCRF-CEM > 100 µM | HL-60 > 100 µM | RPMI-8226 > 100 µM | SF-268 > 100 µM

S=c1nc2c(c[nH]1)C1c3ccccc3C2c2ccccc21
inactive: SNB-75 15.9 µM | 786-0 > 100 µM | RXF 393 35.2 µM | OVCAR-3 67.5 µM | Malme-3M > 100 µM | KM12 44.1 µM | SW-620 > 100 µM | ACHN 61.2 µM | UACC-62 59.6 µM | COLO 205 88.7 µM | DMS-114 62.2 µM | NCI-H522 46 µM | U-251 91.2 µM | MOLT-4 31.8 µM | CCRF-CEM 55 µM | HL-60 28.3 µM | RPMI-8226 35.9 µM | SF-268 > 100 µM

CC1CN(C(=O)CN2CCC(CCCCN(C)C)CC2)c2ccccc2NC1=O (stereo not given)
inactive: 786-0 > 100 µM | OVCAR-3 > 100 µM | Malme-3M > 100 µM | HOP-92 > 100 µM | SW-620 > 100 µM | ACHN > 100 µM | UACC-62 > 100 µM | COLO 205 > 100 µM | DMS-114 > 100 µM | U-251 > 100 µM | MOLT-4 > 100 µM | CCRF-CEM > 100 µM | HL-60 > 100 µM | RPMI-8226 > 100 µM | SF-268 > 100 µM

CCOC(=O)C(NC(=O)c1nc[nH]c1/N=N/N(C)C)C(C)C (stereo not given)
inactive: SNB-75 > 100 µM | 786-0 > 100 µM | OVCAR-3 > 100 µM | Malme-3M > 100 µM | KM12 > 100 µM | SW-620 > 100 µM | ACHN > 100 µM | UACC-62 > 100 µM | COLO 205 > 100 µM | DMS-114 > 100 µM | NCI-H522 > 100 µM | U-251 40.8 µM | MOLT-4 > 100 µM | CCRF-CEM > 100 µM | HL-60 > 100 µM | RPMI-8226 > 100 µM | SF-268 > 100 µM

O=c1ccn(C2(CO)C=C(CO)C(O)C2O)c(=O)[nH]1 (stereo not given)
inactive: SNB-75 > 25.7 µM | 786-0 > 25.7 µM | RXF 393 > 25.7 µM | OVCAR-3 > 25.7 µM | Malme-3M > 25.7 µM | KM12 > 25.7 µM | SW-620 > 25.7 µM | ACHN > 25.7 µM | UACC-62 > 25.7 µM | COLO 205 > 25.7 µM | DMS-114 > 25.7 µM | NCI-H522 > 25.7 µM | U-251 > 25.7 µM | MOLT-4 > 25.7 µM | HL-60 > 25.7 µM | RPMI-8226 > 25.7 µM | SF-268 > 25.7 µM
